Earlier results as cited in patent publication EP2007386B1, “CAMPTOTHECIN-ANALOG WITH A NOVEL, FLIPPED LACTONE-STABLE, E-RING AND METHODS FOR MAKING AND USING SAME” (BIONUMERIK PHARMACEUTICALS, INC., priority 2006, dated 2007).
Entries after “also recorded” stand apart in the source; their conditions may differ. Where two headings read alike, the source gives them in different places.

Legend:
[1] = for Non-Hematologic Toxicity No. of Patients With: Cystitis / Non-Hematologic Toxicity No. of Patients With: Diarrhea: 5-day Course; for Number of Patients with Non-Hematologic Toxicity: Cystitis / Number of Patients with Non-Hematologic Toxicity: Diarrhea: Single-Dose Method
[2] = system: advanced malignant melanoma; settings: fifteen patients, 90-360 mg/m^2 repeated every 2 weeks
[3] = not given; remark: listed apart in the source
[4] = et al
[5] = clinical studies in Japan alone
angiogenesis = settings: mice cornea model; dose levels of 210 mg/kg
[6] = 15 mg/m^2x5, 9 patients treated
[7] = 17 mg/m^2x5, 5 patients treated
[8] = 20 mg/m^2x5, 10 patients treated
[9] = 5-Day Course (27 Patients Total), 4 wks
[10] = 5-Day Course (27 Patients Total), 8 wks
[11] = 5-Day Course (27 Patients Total), 12 wks
[12] = Single-Dose Method (34 Patients Total), 3 wks
[13] = Single-Dose Method (34 Patients Total), 6 wks
[14] = Single-Dose Method (34 Patients Total), 9 wks
[15] = Single-Dose Method (34 Patients Total), 12 wks
[16] = Rothenberg, 90mg QWx 4 Q42 days, 32 pts, 180mg/m^2/wk (50-180)

CC[C@@]1(O)C(=O)OCc2c1cc1n(c2=O)Cc2cc3ccccc3nc2-1 [CPT sodium]
patients with dose limiting bladder toxicity (doses of 20 to 30 mg/m^2, fifteen patients, intravenous push): three | additional patients with bladder toxicity (doses of 30 and 44 mg/m^2): two | clinical benefit (eight patients with measurable disease, 5-day courses at dose levels associated with toxicity): No clinical benefit | Cystitis, 5-Day Course (% of 27 Patients) ([1]; 5-Day Course, 27 patients, P<0.05): 48 (P<0.05) % | Non-Hematologic Toxicity No. of Patients With: Cystitis ([1]; 11 mg/m^2x5, 2 patients treated): 1 | Non-Hematologic Toxicity No. of Patients With: Cystitis [1, 6]: 4 | Non-Hematologic Toxicity No. of Patients With: Diarrhea [1, 6]: 1 | Non-Hematologic Toxicity No. of Patients With: Cystitis [1, 7]: 2 | Non-Hematologic Toxicity No. of Patients With: Diarrhea [1, 7]: 4 | Non-Hematologic Toxicity No. of Patients With: Cystitis [1, 8]: 6 | Non-Hematologic Toxicity No. of Patients With: Diarrhea [1, 8]: 4 | Non-Hematologic Toxicity No. of Patients With: Diarrhea ([1]; 22 mg/m^2x5, 1 patient treated): 1 | Cystitis, Single Dose (% of 34 Patients) ([1]; Single Dose, 34 patients): 24% | Number of Patients with Non-Hematologic Toxicity: Cystitis ([1]; 100 mg/m^2, 6 patients treated): 2 | Number of Patients with Non-Hematologic Toxicity: Cystitis ([1]; 110 mg/m^2, 2 patients treated): 1 | Number of Patients with Non-Hematologic Toxicity: Diarrhea ([1]; 110 mg/m^2, 2 patients treated): 1 | Number of Patients with Non-Hematologic Toxicity: Cystitis ([1]; 120 mg/m^2, 7 patients treated): 2 | Number of Patients with Non-Hematologic Toxicity: Diarrhea ([1]; 120 mg/m^2, 7 patients treated): 4 | Number of Patients with Non-Hematologic Toxicity: Cystitis ([1]; 180 mg/m^2, 9 patients treated): 3 | Number of Patients with Non-Hematologic Toxicity: Diarrhea ([1]; 180 mg/m^2, 9 patients treated): 2 | patients with less pronounced transient tumor regression [2]: three | patients with myelosuppression [2]: 11 | patients with a 50% or greater decrease in tumor diameter ([2]; rapid IV injection): None | Objective Results: Stable (patients) (gastrointestinal cancer; [9]): 12 | Objective Results: Worse (patients) (gastrointestinal cancer; [9]): 14 | Objective Results: Improved (patients) (gastrointestinal cancer; 5-Day Course (27 Patients Total), 4 wks after start of therapy): 1 | Objective Results: Stable (patients) (gastrointestinal cancer; [10]): 7 | Objective Results: Worse (patients) (gastrointestinal cancer; [10]): 20 | Objective Results: Stable (patients) (gastrointestinal cancer; [11]): 6 | Objective Results: Worse (patients) (gastrointestinal cancer; [11]): 21 | Objective Results: Stable (patients) (gastrointestinal cancer; [12]): 17 | Objective Results: Worse (patients) (gastrointestinal cancer; [12]): 13 | Objective Results: Improved (patients) (gastrointestinal cancer; Single-Dose Method (34 Patients Total), 3 wks after start of therapy): 4 | Objective Results: Improved (patients) (gastrointestinal cancer; [13]): 2 | Objective Results: Stable (patients) (gastrointestinal cancer; [13]): 11 | Objective Results: Worse (patients) (gastrointestinal cancer; [13]): 21 | Objective Results: Improved (patients) (gastrointestinal cancer; [14]): 2 | Objective Results: Stable (patients) (gastrointestinal cancer; [14]): 8 | Objective Results: Worse (patients) (gastrointestinal cancer; [14]): 24 | Objective Results: Stable (patients) (gastrointestinal cancer; [15]): 6 | Objective Results: Worse (patients) (gastrointestinal cancer; [15]): 28 | patients with evidence of partial objective improvement (gastrointestinal cancer; after 2 months (8 or 9 weeks), of 61 patients): two | patients who showed improvement (gastrointestinal cancer; at 3 months, of 61 patients): none

CC[C@@]1(O)C(=O)OCc2c1cc1n(c2=O)Cc2cc3ccccc3nc2-1 [CPT, (S)-4-Ethyl-4-hydroxy-1 H-pyrano[3',4':6,7]indolizino[1,2-b]quinoline-3,14(4H,12H)-dione]
mean urine recovery of CPT ([3]; excluding the five patients with impaired excretion): 22.8% | mean urine recovery of CPT ([3]; over the first 48 hours, IV camptothecin sodium 0.5 to 10.0 mg/kg): 17.4%

CCc1c2c(nc3ccc(OC(=O)N4CCC(N5CCCCC5)CC4)cc13)-c1cc3c(c(=O)n1C2)COC(=O)[C@]3(O)CC [CPT-11, 7-ethyl-10-[4-(1-piperidino)-1-piperidino]carbonyloxycamptothecin]
Tumor Type (responses) ([4]; Clavel, 90 min. QDx 3 Q21 Days, 37 pts, 115mg/m^2/d (33-115)): Breast (1 PR); also recorded: Mesothelioma | Toxicity ([4]; Clavel, 90 min. QDx 3 Q21 Days, 37 pts, 115mg/m^2/d (33-115), * = Dose Limiting Toxicity): Neutropenia*; also recorded: diarrhea,; also recorded: vomiting, | Tumor Type (responses) ([4]; Culine, 90 min. Q21 days, 59 pts, 150mg/m^2/wk (50-150)): Esophagus; also recorded: (1 PR) cervix; also recorded: (1 PR) renal; also recorded: (1 PR) Ovarian | Toxicity ([4]; Culine, 90 min. Q21 days, 59 pts, 150mg/m^2/wk (50-150), * = Dose Limiting Toxicity): Fatigue; also recorded: Stomatitis; also recorded: Neutropenia*; also recorded: diarrhea*; also recorded: vomiting,; also recorded: Alopecia | Tumor Type (responses) ([4]; Negoro, 30 min Infusion Weekly, 17 pts, 100mg/m^2 (50-150)): NS CLC (2 PRs) | Toxicity ([4]; Negoro, 30 min Infusion Weekly, 17 pts, 100mg/m^2 (50-150), * = Dose Limiting Toxicity): neutropenia* and diarrhea* and N/V and alopecia, and Liver | Tumor Type (responses) ([4]; Ohe, 120 hr CI Q3wks, 36 pts, 40mg/m^2/d (5-40)): None | Toxicity ([4]; Ohe, 120 hr CI Q3wks, 36 pts, 40mg/m^2/d (5-40), * = Dose Limiting Toxicity): diarrhea*; also recorded: thrombocytopenia; also recorded: Anemia | Toxicity [4, 16]: neutropenia,; also recorded: vomiting,; also recorded: Alopecia | Tumor Type (responses) [4, 16]: Colon Ca | Tumor Type (responses) ([4]; Rowinsky, 90 min Infusion Q21 day, 32 pts, 240mg/m^2 (100-345)): Colon Cancer (1 PR); also recorded: Cervix Ca | Toxicity ([4]; Rowinsky, 90 min Infusion Q21 day, 32 pts, 240mg/m^2 (100-345), * = Dose Limiting Toxicity): Neutropenia*; also recorded: vomiting,; also recorded: diarrhea; also recorded: pain, flushing | patient deaths directly attributable to drug toxicity [5]: approximately 100 | effect on neovascularization (angiogenesis): significant reduction of neovascularization
